Experimental findings from patent US12371464B2, “Polypeptides and uses thereof” (MEDIMMUNE LIMITED, priority 2020, dated 2025) are described below.

The nature of this data set: Thioflavin T fibrillation assay. Particulars: 1 mg/mL in 25 mM sodium acetate buffer pH 4.0, 37° C., 6 days, orbital shaking; >144 h = no increase. The data set is classed as physicochemical. The method in brief: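 Peptides at 1 mg/mL in 25 mM sodium acetate pH 4.0 were mixed with ThT (0.25 mM stock) and held 6 days at 37 °C with intermittent orbital shaking at 500–750 rpm. Fluorescence (ex 444/em 480 nm) was read every 30 min, with buffer baseline correction and 5 replicates. Value: mean time to a detectable fluorescence increase.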

Numbered stars: 1 amine (or outer) side, 2 acyl side, 3 side chain; on linkers, the order of the positions; unused ones are H or OH. Bridge positions count the residues as written; N and C are the ends. Side chains are listed from the residue outwards. Peptide text beside a SMILES is read from it. * marks the point of attachment. C20 diacid = O=C(O)CCCCCCCCCCCCCCCCCCC(=O)*; γGlu = O=C(O)[C@H](CCC(=O)[*:2])N[*:1]

With `CC[C@H](C)[C@H](NC(=O)[C@H](C)NC(=O)[C@@H]1CCCN1C(=O)[C@H](Cc1ccccc1)NC(=O)[C@H](CC(N)=O)NC(=O)[C@@H]1CCCN1C(=O)[C@H](CO)NC(=O)[C@H](CO)NC(=O)[C@H](Cc1c[nH]cn1)NC(=O)[C@@H](NC(=O)[C@H](CC(C)C)NC(=O)[C@H](Cc1ccccc1)NC(=O)[C@H](CC(N)=O)NC(=O)[C@H](C)NC(=O)[C@H](CC(C)C)NC(=O)[C@H](CCCNC(=N)N)NC(=O)[C@H](CCC(N)=O)NC(=O)[C@@H](NC(=O)[C@H](C)NC(=O)[C@@H]1CSSC[C@H](NC(=O)[C@@H](N)CCCCNC(=O)CC[C@H](NC(=O)CC[C@H](NC(=O)CCCCCCCCCCCCCCCCCCC(=O)O)C(=O)O)C(=O)O)C(=O)N[C@@H](CC(N)=O)C(=O)N[C@@H]([C@@H](C)O)C(=O)N[C@@H](C)C(=O)N[C@@H]([C@@H](C)O)C(=O)N1)[C@@H](C)O)C(C)C)C(=O)N[C@@H](CC(C)C)C(=O)N[C@@H](CO)C(=O)N1CCC[C@H]1C(=O)N[C@H](C(=O)N[C@@H](CC(N)=O)C(=O)N[C@H](C(=O)NCC(=O)N[C@@H](CO)C(=O)N[C@@H](CC(N)=O)C(=O)N[C@H](C(=O)N[C@@H](Cc1ccc(O)cc1)C(N)=O)[C@@H](C)O)C(C)C)[C@@H](C)O` [Peptide 115] (H-K([γGlu-γGlu-C20 diacid])CNTATCATQRLANFLVHSSPNFPAILSPTNVGSNTY-NH2; disulfide 2-7; N-terminus assumed), the “Time taken to detect increase in fluorescence intensity” value was less than 5 h.

Turning to `CC[C@H](C)[C@H](NC(=O)[C@@H]1CCCN1C(=O)CNC(=O)[C@H](Cc1ccccc1)NC(=O)[C@H](CC(N)=O)NC(=O)[C@H](CC(N)=O)NC(=O)[C@H](CO)NC(=O)[C@H](CO)NC(=O)[C@H](Cc1c[nH]cn1)NC(=O)[C@@H](NC(=O)[C@H](CC(C)C)NC(=O)[C@H](Cc1ccccc1)NC(=O)[C@H](CC(N)=O)NC(=O)[C@H](C)NC(=O)[C@H](CC(C)C)NC(=O)[C@H](CCCNC(=N)N)NC(=O)[C@H](CCC(N)=O)NC(=O)[C@@H](NC(=O)[C@H](C)NC(=O)[C@@H]1CSSC[C@H](NC(=O)[C@@H](N)CCCCNC(=O)CC[C@H](NC(=O)CC[C@H](NC(=O)CCCCCCCCCCCCCCCCCCC(=O)O)C(=O)O)C(=O)O)C(=O)N[C@@H](CC(N)=O)C(=O)N[C@@H]([C@@H](C)O)C(=O)N[C@@H](C)C(=O)N[C@@H]([C@@H](C)O)C(=O)N1)[C@@H](C)O)C(C)C)C(=O)N[C@@H](CC(C)C)C(=O)N1CCC[C@H]1C(=O)N1CCC[C@H]1C(=O)N[C@H](C(=O)N[C@@H](CC(N)=O)C(=O)N[C@H](C(=O)NCC(=O)N[C@@H](CO)C(=O)N[C@@H](CCCNC(=N)N)C(=O)N[C@H](C(=O)N[C@@H](Cc1ccc(O)cc1)C(N)=O)[C@@H](C)O)C(C)C)[C@@H](C)O` [Peptide 114] (H-K([γGlu-γGlu-C20 diacid])CNTATCATQRLANFLVHSSNNFGPILPPTNVGSRTY-NH2; disulfide 2-7; N-terminus assumed), the “Time taken to detect increase in fluorescence intensity” value was less than 5 h.
